Reference: patent publication US6410041B1, “Culturing cells in presence of amphipathic weak bases and/or cations and multiple drug resistance inhibitor containing reserpine” (priority 1998, dated 2002)
Values after ≈ are worked out from the molar mass of the structure shown. Like-named read-outs stand apart in the source and are kept apart here. Values belong to the compound of their own block, whether it stands above or below them.

Assays:
S. aureus = assay: MICs of antimicrobials with small molecule MDR inhibitor (I) and high pH; type: cell-based, Staphylococcus aureus; settings: for Potentiation factor (pH 7/(pH 9 + I)): pH 7 vs pH 9 + I
Method: (§1) Determination of minimal inhibitory concentrations (MICs). MICs were determined by serial two-fold dilution of antimicrobials in Mueller-Hinton broth containing chloramphenicol ([…]). […] Around 10^5 cells were inoculated in 1 ml of medium for the test. MICs were read after 18 hours of incubation at 37 C. with aeration. The 50% inhibitory concentration (IC50) was determined by growing cells in microtiter plate wells and reading the optical density after overnight growth at 650 nm.

[1] = system: Staphylococcus aureus RN 4222 (WT); assay: MIC determination in wild type S. aureus; type: cell-based
Method: as §1

[2] = system: Staphylococcus aureus KLE 820 (norA−); assay: microbe, parasite or virus in culture; type: cell-based; settings: for Sensitivity of norA- as compared to the wild type: in the absence of reserpine
From the text: Disruption of the norA gene. Chloramphenicol acetyltransferase (CAT) gene was isolated by digesting plasmid pLI50 (10) with Sau3A (New England Biolabs). The CAT gene was cloned into the BamHI site of plasmid pSP72 (Promega) to yield plasmid PCH22. Chromosomal DNA from S. aureus RN4220 was isolated according to the protocol of Qiagen, Inc. Part of the 1050 bp norA gene lacking a 80 bp N-terminus and a 20 bp C-terminus was PCR-amplified from chromosomal DNA using primer A:5′-[…]-[…] and primer B:5′-[…]. This fragment was cloned into the EcoRI/EcoRV site of PCH22 to yield plasmid PCH23. S. aureus were transformed by PCH23 using electroporation (11). Cells were plated on trypticase soy agar (TSA) with chloramphenicol. A transformant colony was picked after 24 hours of incubation at 37 C., regrown, plated on CAM medium and a large colony was picked for further work.
as §1

[3] = Staphylococcus aureus, pH 7, read-out: MIC
[4] = Staphylococcus aureus, pH 9, read-out: MIC
[5] = Staphylococcus aureus, RN 4222 (WT), pH 7.2, read-out: MIC
[6] = Staphylococcus aureus, RN 4222 (WT), pH 9, read-out: MIC
[7] = Staphylococcus aureus, pH 7.2, KLE 820 (norA−), pH 7.2
[8] = Staphylococcus aureus, pH 9, KLE 820 (norA−), pH 9
[9] = Staphylococcus aureus, RN 4222 (WT), −R (no reserpine), read-out: MIC
[10] = RN 4222 (WT), +R (20 μg/mL reserpine)
[11] = Staphylococcus aureus, KLE 820 (norA−), −R (no reserpine)
[12] = KLE 820 (norA−), +R (20 μg/mL reserpine)

Structure (SMILES): COc1ccc2cc3[n+](cc2c1OC)CCc1cc2c(cc1-3)OCO2 [Berberine]
MIC (S. aureus; [3]): 60 µg/mL
MIC (S. aureus; [4]): 7.5 µg/mL
MIC (S. aureus; Staphylococcus aureus, MDR inhibitor and high pH, read-out: MIC): 0.012 µg/mL
substrate of MDR pumps (S. aureus; cationic plant antimicrobial alkaloids): good substrates of MDR pumps
MIC (S. aureus; pH 7 + I (10 μg/mL)): 0.4 µg/mL
Ratio (S. aureus; pH 7 vs pH 7 + I): 150
Potentiation factor (pH 7/(pH 9 + I)) (S. aureus): 4,800
MIC (S. aureus; pH 9 + I): 0.0125 µg/mL
Ratio (S. aureus; pH 9 vs pH 9 + I): 600
increase in potency by MDR inhibitor (S. aureus; proprietary MDR inhibitor (I), Table 3, pH 7): 150 fold
MIC [1, 5]: 60 µg/mL
MIC [1, 6]: 3.75 µg/mL
MIC [2, 7]: 7.5 µg/mL
MIC [2, 8]: 0.23 µg/mL
substrate of NorA ([2]; based on comparison of MIC from wild type and norA−): substrates of NorA
increase in sensitivity, pH 9 combined with norA mutation ([2]; norA− at pH 9 vs wild type at neutral pH): 260 fold
Sensitivity norA− at pH 9 vs. WT at pH 7.2 [2]: 260
increase in sensitivity by norA mutation ([2]; norA− vs wild type): 32 fold

Structure (SMILES): CC(=O)OCC1=C(C(=O)O)N2C(=O)[C@@H](NC(=O)Cc3cccs3)[C@H]2SC1 [Cephalothin]
MIC [1, 9]: 0.15 µg/mL (≈ 0.378 µM)
Sensitivity of norA- as compared to the wild type [2]: 1

Structure (SMILES): [H]/N=C(\N/C(=N/[H])NCCCCCCNC(=N)NC(=N)Nc1ccc(Cl)cc1)Nc1ccc(Cl)cc1 [Chlorhexidine]
MIC (S. aureus; [3]): 0.5 µg/mL (≈ 0.989 µM)
MIC (S. aureus; [4]): 0.12 µg/mL (≈ 0.237 µM)
potentiation by high pH and MDR inhibitor (S. aureus; high pH combined with MDR inhibitor / MDR inactivation): 133 fold
MIC (S. aureus; pH 7 + I (10 μg/mL)): 0.06 µg/mL
Ratio (S. aureus; pH 7 vs pH 7 + I): 8.3
Potentiation factor (pH 7/(pH 9 + I)) (S. aureus): 133
MIC (S. aureus; pH 9 + I): 0.0037 µg/mL
Ratio (S. aureus; pH 9 vs pH 9 + I): 32
MIC [1, 5]: 0.5 µg/mL (≈ 0.989 µM)
MIC [1, 6]: 0.06 µg/mL (≈ 0.119 µM)
effect of pH 9 on sensitivity / effectiveness ([1]; change of pH from 7 to 9): significantly increased the effectiveness
MIC [2, 7]: 0.125 µg/mL (≈ 0.247 µM)
MIC [2, 8]: 0.0156 µg/mL (≈ 0.0309 µM)
Sensitivity norA− at pH 9 vs. WT at pH 7.2 [2]: 32

MIC [1, 10]: 0.33 µg/mL (≈ 0.996 µM)
MIC [1, 9]: 0.67 µg/mL (≈ 2.02 µM)
Structure (SMILES): O=C(O)c1cn(C2CC2)c2cc(N3CCNCC3)c(F)cc2c1=O [Ciprofloxacin]

Structure (SMILES): CCC[C@@H]1C[C@@H](C(=O)N[C@@H]([C@H]2O[C@H](SC)[C@H](O)[C@@H](O)[C@H]2O)[C@H](C)Cl)N(C)C1 [Clindamycin]
MIC [1, 9]: 0.047 µg/mL (≈ 0.111 µM)
Sensitivity of norA- as compared to the wild type [2]: 1

Structure (SMILES): CC[C@H]1OC(=O)[C@H](C)[C@@H](O[C@H]2C[C@@](C)(OC)[C@@H](O)[C@H](C)O2)[C@H](C)[C@@H](O[C@@H]2O[C@H](C)C[C@H](N(C)C)[C@H]2O)[C@](C)(O)C[C@@H](C)C(=O)[C@H](C)[C@@H](O)[C@]1(C)O [Erythromycin]
MIC ([1]; Staphylococcus aureus): 0.195 µg/mL (≈ 0.266 µM)
MIC [2, 11]: 0.195 µg/mL (≈ 0.266 µM)
Sensitivity of norA- as compared to the wild type [2]: 1

Structure (SMILES): CC[n+]1c(-c2ccccc2)c2cc(N)ccc2c2ccc(N)cc21 [EtBr, ethidium bromide]
MIC [1, 10]: 1.25 µg/mL
MIC ([1]; Staphylococcus aureus): 5 µg/mL
MIC ([1]; Staphylococcus aureus, pH 7.2): 5 µg/mL
MIC ([1]; Staphylococcus aureus, pH 9): 0.078 µg/mL
MIC [2, 12]: 0.33 µg/mL
MIC [2, 11]: 0.33 µg/mL
MIC [2, 7]: 0.312 µg/mL
MIC [2, 8]: 0.01 µg/mL
Sensitivity of norA- as compared to the wild type [2]: 16
Sensitivity norA− at pH 9 vs. WT at pH 7.2 [2]: 500

Structure (SMILES): NC[C@H]1O[C@H](O[C@H]2[C@H](O)[C@@H](O[C@H]3O[C@H](CO)[C@@H](O)[C@H](N)[C@H]3O)[C@H](N)C[C@@H]2N)[C@H](O)[C@@H](O)[C@@H]1O [Kanamycin]
MIC [1, 9]: 0.33 µg/mL (≈ 0.681 µM)
Sensitivity of norA- as compared to the wild type [2]: 1

Structure (SMILES): CCC[C@@H]1C[C@@H](C(=O)N[C@@H]([C@H]2O[C@H](SC)[C@H](O)[C@@H](O)[C@H]2O)[C@@H](C)O)N(C)C1 [Lincomycin]
MIC [1, 9]: 0.6 µg/mL (≈ 1.48 µM)
Sensitivity of norA- as compared to the wild type [2]: 1

Structure (SMILES): CCn1cc(C(=O)O)c(=O)c2cc(F)c(N3CCNCC3)cc21 [Norfloxacin]
MIC [1, 10]: 0.67 µg/mL (≈ 2.1 µM)
MIC [1, 5]: 1.25 µg/mL (≈ 3.91 µM)
MIC [1, 6]: 1.25 µg/mL (≈ 3.91 µM)
MIC [1, 9]: 1.25 µg/mL (≈ 3.91 µM)
MIC [2, 12]: 0.33 µg/mL (≈ 1.03 µM)
MIC [2, 11]: 0.33 µg/mL (≈ 1.03 µM)
MIC [2, 7]: 0.33 µg/mL (≈ 1.03 µM)
MIC [2, 8]: 0.33 µg/mL (≈ 1.03 µM)
Sensitivity of norA- as compared to the wild type [2]: 4
Sensitivity norA− at pH 9 vs. WT at pH 7.2 [2]: 4
